Assay results published in patent US9913843B2, “Protein kinase C inhibitors and uses thereof” (Rigel Pharmaceuticals, Inc., priority 2012, dated 2018).
Like-named read-outs stand apart in the source and are kept apart here.

Tested on: PKC mediated IL-2 production in human primary T cells
Assay: IL-2 ELISA, human primary T cell, anti CD3+CD28+ (whole cell functional assay for PKC mediated IL-2 production)
Type: cell-based
Procedure, shortened: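 Primary human T cells (PBMC-derived, expanded on plate-bound anti-CD3/CD28 with IL-2, then IL-2-washed) were pre-incubated 1 h at 37 °C with compound, then stimulated on 1 μg/ml anti-CD3 plus 5 μg/ml anti-CD28. After 24 h at 37 °C, secreted IL-2 was measured by ELISA; counter assay used 0.5 ng/ml PMA plus 0.1 μM ionomycin (final).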

[1] = 24 h, human primary T cells stimulated with anti-CD3 + anti-CD28, IL-2 by ELISA, read-out: IC50 for blocking IL-2 production
[2] = human primary T cells stimulated with anti-CD3 + anti-CD28, 24 h, IL-2 by ELISA, 8 pt, read-out: IL2 ELISA, Human primary T cell, anti-CD3 + CD28, 8 pt (IC50)

Row | SMILES | IC50 [1] [nM] | IC50 [2] [nM]
1 | Cc1cnc(Nc2cc(-n3cnnn3)c(C3CC3)cc2F)nc1NC[C@@H]1CCCN2CCCC[C@H]12 [Compound 59, N2-(4-cyclopropyl-2-fluoro-5-(1H-tetrazol-1-yl)phenyl)-N4-(((1S,9aR)-octahydro-1H-quinolizin-1-yl)methyl)-5-methylpyrimidine-2,4-diamine] | < 30000 | 160
2 | OCCOc1ccc(Nc2ncc(F)c(NC[C@@H]3CCCN4CCCC[C@H]34)n2)cc1-n1cnnn1 [Compound 138, 2-(4-((5-fluoro-4-((((1S,9aR)-octahydro-2H-quinolizin-1-yl)methyl)amino)pyrimidin-2-yl)amino)-2-(1H-tetrazol-1-yl)phenoxy)ethan-1-ol] | < 30000 | 49.3
3 | COc1cc(F)cc(Nc2ncc(F)c(NC[C@@H]3CCCN4CCCC[C@H]34)n2)c1 [Compound 21, 5-fluoro-N2-(3-fluoro-5-methoxyphenyl)-N4-(((1S,9aR)-octahydro-1H-quinolizin-1-yl)methyl)pyrimidine-2,4-diamine] | < 30000 | 702
4 | O=S1(=O)CCCN1c1cc(Nc2ncc(F)c(NC[C@@H]3CCCN4CCCC[C@H]34)n2)ccc1F [Compound 24, N2-[3-(1,1-dioxo-isothiazolidin-2-yl)-4-fluoro-phenyl]-5-fluoro-N4-(((1S,9aR)-octahydro-1H-quinolizin-1-yl)methyl)-pyrimidine-2,4-diamine] | < 30000 | 3450
5 | Cn1nnn(-c2cc(Nc3ncc(Cl)c(NC[C@@H]4CCCN5CCCC[C@H]45)n3)c(F)cc2OC(C)(C)CO)c1=O [Compound 153, 1-(5-((5-chloro-4-((((1S,9aR)-octahydro-2H-quinolizin-1-yl)methyl)amino)pyrimidin-2-yl)amino)-4-fluoro-2-((1-hydroxy-2-methylpropan-2-yl)oxy)phenyl)-4-methyl-1,4-dihydro-5H-tetrazol-5-one] | < 30000 | 832
6 | Cc1ccc(Nc2ncc(C(F)(F)F)c(NC[C@@H]3CCCN4CCCC[C@H]34)n2)cc1-n1cnnn1 [Compound 101, 5-(trifluoromethyl)-N4-(((1S,9aR)-octahydro-1H-quinolizin-1-yl)methyl)-N2-(4-methyl-3-(1H-tetrazol-1-yl)phenyl)pyrimidine-2,4-diamine] | < 30000 | 10700
7 | Fc1ccc(-n2nnnc2C2CC2)cc1Nc1ncc(F)c(NC[C@@H]2CCCN3CCCC[C@H]23)n1 [Compound 45, N2-(5-(5-cyclopropyl-1H-tetrazol-1-yl)-2-fluorophenyl)-5-fluoro-N4-(((1S,9aR)-octahydro-1H-quinolizin-1-yl)methyl)pyrimidine-2,4-diamine] | < 30000 | 224
8 | Cn1nnnc1Oc1cc(Nc2ncc(F)c(NC[C@@H]3CCCN4CCCC[C@H]34)n2)c(F)cc1C1CC1 [Compound 28, N2-(5-(1-methyl-1H-tetrazol-5-yloxy)-4-cyclopropyl-2-fluorophenyl)-5-fluoro-N4-(((1S,9aR)-octahydro-1H-quinolizin-1-yl)methyl)pyrimidine-2,4-diamine] | < 30000 | 1820
9 | N#Cc1cc(Nc2ncc(F)c(NC[C@@H]3CCCN4CCCC[C@H]34)n2)ccc1C1CC1 [Compound 1, 5-(4-(((1S,9aR)-octahydro-1H-quinolizin-1-yl)methylamino)-5-fluoropyrimidin-2-ylamino)-2-cyclopropylbenzonitrile] | < 30000 | 107
10 | CN(C)c1cnc(Nc2cccc(C#N)c2)nc1NC[C@@H]1CCCN2CCCC[C@H]12 [Compound 92, 3-(4-(((1S,9aR)-octahydro-1H-quinolizin-1-yl)methylamino)-5-(dimethylamino)pyrimidin-2-ylamino)benzonitrile] | < 30000 | 9460
11 | CC(O)COc1cc(F)c(Nc2ncc(C#N)c(NC[C@@H]3CCCN4CCCC[C@H]34)n2)cc1-n1nnn(C)c1=O (stereo partly drawn) [Compound 136, 2-((2-fluoro-4-(2-hydroxypropoxy)-5-(4-methyl-5-oxo-4,5-dihydro-1H-tetrazol-1-yl)phenyl)amino)-4-((((1S,9aR)-octahydro-2H-quinolizin-1-yl)methyl)amino)pyrimidine-5-carbonitrile] | < 30000 | 176
12 | Cc1nnnn1-c1ccc(F)c(Nc2ncc(C(N)=O)c(NC[C@@H]3CCCN4CCCC[C@H]34)n2)c1 [Compound 127, 4-(((1S,9aR)-octahydro-1H-quinolizin-1-yl)methylamino)-2-(2-fluoro-5-(5-methyl-1H-tetrazol-1-yl)phenylamino)pyrimidine-5-carboxamide] | < 30000 | 824
13 | Cc1ccc(Nc2ncc(F)c(NC[C@@H]3CCCN4CCCC[C@H]34)n2)cc1C#N [Compound 9, 5-(4-(((1S,9aR)-octahydro-1H-quinolizin-1-yl)methylamino)-5-fluoropyrimidin-2-ylamino)-2-methylbenzonitrile] | < 30000 | 195
14 | Fc1cnc(Nc2ccc(N3CCOCC3)c(C(F)(F)F)c2)nc1NC[C@@H]1CCCN2CCCC[C@H]12 [Compound 19, 5-fluoro-N2-(3-(trifluoromethyl)-4-morpholinophenyl)-N4-(((1S,9aR)-octahydro-1H-quinolizin-1-yl)methyl)pyrimidine-2,4-diamine] | < 30000 | 554
15 | N#Cc1cc(Nc2ncc(F)c(NC[C@@H]3CCCN4CCCC[C@H]34)n2)c(F)cc1C1CC1 [Compound 12, 5-(4-(((1S,9aR)-octahydro-1H-quinolizin-1-yl)methylamino)-5-fluoropyrimidin-2-ylamino)-2-cyclopropyl-4-fluorobenzonitrile] | < 30000 | 889
16 | Cc1nnnn1-c1cc(Nc2ncc(F)c(NC[C@@H]3CCCN4CCCC[C@H]34)n2)c(F)cc1C1CC1 [Compound 23, N2-(4-cyclopropyl-2-fluoro-5-(5-methyl-1H-tetrazol-1-yl)phenyl)-5-fluoro-N4-(((1S,9aR)-octahydro-1H-quinolizin-1-yl)methyl)pyrimidine-2,4-diamine] | < 30000 | 66.3
17 | COc1ccc(Nc2nccc(NC[C@@H]3CCCN4CCCC[C@H]34)n2)cc1-n1nnnc1C [Compound 51, N4-(((1S,9aR)-octahydro-1H-quinolizin-1-yl)methyl)-N2-(4-methoxy-3-(5-methyl-1H-tetrazol-1-yl)phenyl)pyrimidine-2,4-diamine] | < 30000 | 532
18 | Cn1nnn(-c2cc(Nc3ncc(Cl)c(NC[C@@H]4CCCN5CCCC[C@H]45)n3)c(F)cc2OCC(C)(C)O)c1=O [Compound 155, 1-(5-((5-chloro-4-((((1S,9aR)-octahydro-2H-quinolizin-1-yl)methyl)amino)pyrimidin-2-yl)amino)-4-fluoro-2-(2-hydroxy-2-methylpropoxy)phenyl)-4-methyl-1,4-dihydro-5H-tetrazol-5-one] | < 30000 | 136
19 | COc1cnc(Nc2ccc(C)c(C#N)c2)nc1NC[C@@H]1CCCN2CCCC[C@H]12 [Compound 80, 5-(4-(((1S,9aR)-octahydro-1H-quinolizin-1-yl)methylamino)-5-methoxypyrimidin-2-ylamino)-2-methylbenzonitrile] | < 30000 | 2480
20 | COc1cnc(Nc2ccc(C)c(-n3cnnn3)c2)nc1NC[C@@H]1CCCN2CCCC[C@H]12 [Compound 73, N4-(((1S,9aR)-octahydro-1H-quinolizin-1-yl)methyl)-5-methoxy-N2-(4-methyl-3-(1H-tetrazol-1-yl)phenyl)pyrimidine-2,4-diamine] | < 30000 | 3270
21 | N#Cc1cc(Nc2ncc(C(F)(F)F)c(NC[C@@H]3CCCN4CCCC[C@H]34)n2)ccc1C1CC1 [Compound 109, 5-(4-(((1S,9aR)-octahydro-1H-quinolizin-1-yl)methylamino)-5-(trifluoromethyl)pyrimidin-2-ylamino)-2-cyclopropylbenzonitrile] | < 30000 | 6580
22 | COc1cc(Nc2ncc(F)c(NC[C@@H]3CCCN4CCCC[C@H]34)n2)cc(-n2nnn(C)c2=O)c1 [Compound 17, 1-(3-(4-(((1S,9aR)-octahydro-1H-quinolizin-1-yl)methylamino)-5-fluoropyrimidin-2-ylamino)-5-methoxyphenyl)-4-methyl-1H-tetrazol-5(4H)-one] | < 30000 | 405
23 | COc1cc(Nc2ncc(C)c(NC[C@@H]3CCCN4CCCC[C@H]34)n2)cc(OC)c1 [Compound 70, N4-(((1S,9aR)-octahydro-1H-quinolizin-1-yl)methyl)-N2-(3,5-dimethoxyphenyl)-5-methylpyrimidine-2,4-diamine] | < 30000 | 1530
24 | Cc1cc(C2CC2)c(-n2nnn(C)c2=O)cc1Nc1ncc(F)c(NC[C@@H]2CCCN3CCCC[C@H]23)n1 [Compound 15, 1-(5-(4-(((1S,9aR)-octahydro-1H-quinolizin-1-yl)methylamino)-5-fluoropyrimidin-2-ylamino)-2-cyclopropyl-4-methylphenyl)-4-methyl-1H-tetrazol-5(4H)-one] | < 30000 | 10600
25 | Cn1nnn(-c2cc(Nc3ncc(C#N)c(NC[C@@H]4CCCN5CCCC[C@H]45)n3)c(F)cc2OCC2(C)COC2)c1=O [Compound 130, 2-((2-fluoro-5-(4-methyl-5-oxo-4,5-dihydro-1H-tetrazol-1-yl)-4-((3-methyloxetan-3-yl)methoxy)phenyl)amino)-4-((((1S,9aR)-octahydro-2H-quinolizin-1-yl)methyl)amino)pyrimidine-5-carbonitrile] | < 30000 | 444
26 | Fc1cnc(Nc2ccc3c(c2)OC(F)(F)C(F)(F)O3)nc1NC[C@@H]1CCCN2CCCC[C@H]12 [Compound 20, 5-fluoro-N2-(2,2,3,3-tetrafluoro-2,3-dihydrobenzo[b][1,4]dioxin-7-yl)-N4-(((1S,9aR)-octahydro-1H-quinolizin-1-yl)methyl)pyrimidine-2,4-diamine] | < 30000 | 1080
